Values of other authors in patent US7749961B2, “Macrocyclic peptides active against the hepatitis C virus” (Boehringer Ingelheim International GmbH, priority 2004, dated 2010).

Tested on: hepatitis C virus
Settings: two day clinical trial

COc1ccc2c(O[C@@H]3C[C@H]4C(=O)N[C@]5(C(=O)O)C[C@H]5/C=C\CCCCC[C@H](NC(=O)OC5CCCC5)C(=O)N4C3)cc(-c3csc(NC(C)C)n3)nc2c1 [BILN 2061]
reduction of viral loads in patients infected with the hepatitis C virus: effective in rapidly reducing viral loads
